Patent US20080004311A1, “HISTONE DEACETYLASE INHIBITORS FOR TREATING DEGENERATIVE DISEASES OF THE EYE” (ALCON, INC., priority 2002, published 2008)

System: cultured adult rat retinal ganglion cells (RGC)
Experiment: Survival of cultured adult rat retinal ganglion cells (RGC), Thy-1-positive healthy cell count
Format: cell-based
Details: Thy-1-positive healthy cells counted; for RGC survival against trophic factor withdrawal (TFW)-induced toxicity: bFGF, BDNF and CNTF removed from medium, cultured with compound for 3 days; for RGC survival against TNFα-induced toxicity / RGC survival against glutamate-induced toxicity: pre-treated 30 minutes; for RGC survival against TNFα-induced toxicity: then 10 ng/mL TNFα for 3 days; for RGC survival against glutamate-induced toxicity: then 100 μM glutamate for 3 days
Experimental: Culture of rat retinal ganglion cells (RGC) was performed as described in Pang et al. (Pang et al., 2007, BMC Neuroscience 8:11). Adult Sprague-Dawley rats were briefly euthanized by CO2 asphyxiation. Their eyes were enucleated and placed in the Neurobasal medium. The retina from each eye was detached and isolated. Retinal cells were dissociated by combining up to 20 retinas with 5 mL of papain solution, containing 10 mg papain, 2 mg DL-cysteine, and 2 mg bovine serum albumin in 5 ml of Neurobasal medium, for 25 min at 37° C., then washed 3 times with 5 mL RGC medium (Neurobasal medium with various nutrient supplements)+1% fetal calf serum. Retinal pieces were triturated by passing through a fire-polished disposable pipette several times until cells were dispersed. Cell suspension was placed onto of the poly-D-lysine- and laminin-coated 8-well chambered culture slide. The cells were then cultured in 95% air/5% CO2 at 37° C.
For glutamate-induced toxicity studies, cells were pre-treated with vehicle (cell media plus 0.1% DMSO) or the indicated compounds for 30 minutes, followed by 100 μM glutamate for 3 days. For TNFα-induced toxicity studies, cells were pre-treated with vehicle or the indicated compounds for 30 minutes, followed by 10 ng/mL TNFα for 3 days. For s trophic factor withdrawal (TFW) studies, three trophic factors, basic fibroblast growth factor, brain-derived neurotrophic factor, and ciliary neurotrophic factor, were removed from the culture medium. Cells were cultured in this medium with the indicated compounds for 3 days.
At the end of the incubation period, the cells were fixed and labeled for Thy-1, a RGC marker, by immunocytochemistry. Cell survival was quantified by manually counting Thy-1-positive healthy cells in each well. As shown by the data in FIGS. 1, 2, and 3, APHA-8 (Sigma, St. Louis, Mo.) and Scriptaid™ (Sigma, St. Louis, Mo.) were protective against glutamate-, tumor necrosis factor-alpha (TNFα)-, and trophic factor withdrawal (TFW)-induced toxicity.

O=C(CCCCCN1C(=O)c2cccc3cccc(c23)C1=O)NO [Scriptaid™, 6-(1,3-Dioxo-1H, 3H-benzo[de]isoquinolin-2-yl)-hexanoic acid hydroxyamide]
protective: RGC survival against trophic factor withdrawal (TFW)-induced toxicity | RGC survival against TNFα-induced toxicity | RGC survival against glutamate-induced toxicity

Cn1cc(C(=O)Cc2ccccc2)cc1C=CC(=O)NO [APHA-8, 3-(1-methyl-4-phenlyacetyl-1H-2-pyrrolyl)-N-hydroxy-2-propenamide]
protective: RGC survival against trophic factor withdrawal (TFW)-induced toxicity | RGC survival against TNFα-induced toxicity | RGC survival against glutamate-induced toxicity
